{"source": "ChEMBL document CHEMBL6177942", "about": "“Recent advances of selenized tubulin inhibitors in cancer therapy” (Bioorg Med Chem Lett, 2025)", "key": {"[1]": {"tested_on": "RKO", "experiment": "Antiproliferative activity against human RKO cells assessed as reduction in cell growth measured for 48 hrs by MTT assay", "assay_type": "functional, cell-based", "details": "pooled result: one value given for 6 cell lines, strains, targets or settings"}, "[2]": {"tested_on": "HepG2", "experiment": "Antiproliferative activity against human HepG2 cells assessed as reduction in cell viability incubated for 48 hrs by MTT assay", "assay_type": "functional, cell-based", "details": "HepG2, 48 h"}, "[3]": {"tested_on": "MDA-MB-231", "experiment": "Antiproliferative activity against human MDA-MB-231 cells assessed as reduction in cell viability incubated for 48 hrs by MTT assay", "assay_type": "functional, cell-based", "details": "MDA-MB-231, 48 h"}, "[4]": {"tested_on": "HeLa", "experiment": "Antiproliferative activity against human HeLa cells assessed as reduction in cell viability incubated for 48 hrs by MTT assay", "assay_type": "functional, cell-based"}, "[5]": {"tested_on": "A549", "experiment": "Antiproliferative activity against human A549 cells assessed as reduction in cell viability incubated for 48 hrs by MTT assay", "assay_type": "functional, cell-based", "details": "A549, 48 h"}, "[6]": {"tested_on": "RKO", "experiment": "Antiproliferative activity against human RKO cells assessed as reduction in cell viability incubated for 48 hrs by MTT assay", "assay_type": "functional, cell-based"}, "[7]": {"tested_on": "HCT-116", "experiment": "Antiproliferative activity against human HCT-116 cells assessed as reduction in cell viability incubated for 48 hrs by MTT assay", "assay_type": "functional, cell-based", "details": "HCT-116, 48 h"}, "[8]": {"tested_on": "KB", "experiment": "Antiproliferative activity against human KB cells assessed as reduction in cell viability by MTT assay", "assay_type": "functional, cell-based"}, "[9]": {"tested_on": "HT-1080", "experiment": "Antiproliferative activity against human HT-1080 cells assessed as reduction in cell viability by MTT assay", "assay_type": "functional, cell-based"}, "[10]": {"tested_on": "SGC-7901", "experiment": "Antiproliferative activity against human SGC-7901 cells assessed as reduction in cell viability by MTT assay", "assay_type": "functional, cell-based"}, "[11]": {"tested_on": "MCF7", "experiment": "Antiproliferative activity against human MCF7 cells assessed as reduction in cell viability incubated for 72 hrs by MTT assay", "assay_type": "functional, cell-based", "details": "MCF7, 72 h"}, "[12]": {"experiment": "Antiproliferative activity against human MCF-10A cells assessed as reduction in cell viability incubated for 72 hrs by MTT assay", "assay_type": "toxicity, cell-based"}, "[13]": {"tested_on": "MDA-MB-231", "experiment": "Antiproliferative activity against human MDA-MB-231 cells assessed as reduction in cell viability incubated for 72 hrs by MTT assay", "assay_type": "functional, cell-based", "details": "MDA-MB-231, 72 h"}, "[14]": {"tested_on": "NCI/ADR-RES", "experiment": "Antiproliferative activity against human MCF7ADR cells assessed as reduction in cell viability incubated for 72 hrs by MTT assay", "assay_type": "functional, cell-based"}}}
{"smiles": "CN(c1ccc([Se]C#N)cc1)c1nc(Cl)nc2ccccc12", "values": [{"measurement": "IC50", "setting": "[1]", "result": 3.39, "unit": "nM"}]}
{"smiles": "COc1nc(N(C)c2ccc([Se]C)cc2)c2ccccc2n1", "values": [{"measurement": "IC50", "setting": "[1]", "result": 4.78, "unit": "nM"}]}
{"smiles": "C[Se]c1ccc(N(C)c2nc(=O)[nH]c3ccccc23)cc1", "values": [{"measurement": "IC50", "setting": "[1]", "result": 17.4, "unit": "nM"}]}
{"smiles": "COc1cc(C(=O)/C=C/c2c[nH]c3ccccc23)cc([Se]C)c1OC", "values": [{"measurement": "IC50", "setting": "[2]", "result": 29, "unit": "nM"}, {"measurement": "IC50", "setting": "[3]", "result": 29, "unit": "nM"}, {"measurement": "IC50", "setting": "[4]", "result": 29, "unit": "nM"}, {"measurement": "IC50", "setting": "[5]", "result": 29, "unit": "nM"}, {"measurement": "IC50", "setting": "[6]", "result": 29, "unit": "nM"}, {"measurement": "IC50", "setting": "[7]", "result": 29, "unit": "nM"}]}
{"smiles": "COc1ccc([Se]c2c(C)[nH]c3c(OC)c(OC)c(OC)cc23)cc1O", "values": [{"measurement": "IC50", "setting": "[8]", "result": 25, "unit": "nM"}, {"measurement": "IC50", "setting": "[9]", "result": 14, "unit": "nM"}, {"measurement": "IC50", "setting": "[10]", "result": 54, "unit": "nM"}]}
{"smiles": "Cc1cc([Se]C#N)ccc1N(C)c1nc(Cl)nc2ccccc12", "values": [{"measurement": "IC50", "setting": "[1]", "result": 37.9, "unit": "nM"}]}
{"smiles": "COc1ccc(/C=C\\c2cc(OC)c(OC)c(OC)c2)cc1O", "note": "[COMBRETASTATIN A4]", "values": [{"measurement": "IC50", "setting": "[8]", "result": 4, "unit": "nM"}, {"measurement": "IC50", "setting": "[9]", "result": 11, "unit": "nM"}, {"measurement": "IC50", "setting": "[10]", "result": 11, "unit": "nM"}]}
{"smiles": "C[Se]c1ccc(N(C)c2nc(Cl)nc3ccccc23)cc1", "values": [{"measurement": "IC50", "setting": "[1]", "result": 2.77, "unit": "nM"}]}
{"smiles": "COc1ccc([Se](=O)c2cc(OC)c(OC)c(OC)c2)cc1O", "note": "(stereo not given)", "values": [{"measurement": "IC50", "setting": "[11]", "result": 25, "unit": "nM"}, {"measurement": "IC50 at 72 h", "setting": "[12]", "result": 131, "unit": "nM"}, {"measurement": "IC50", "setting": "[13]", "result": 6.3, "unit": "nM"}, {"measurement": "IC50", "setting": "[14]", "result": 26.3, "unit": "nM"}]}
{"smiles": "COc1ccc([Se]c2c[nH]c3c(OC)c(OC)c(OC)cc23)cc1O", "values": [{"measurement": "IC50", "setting": "[8]", "result": 640, "unit": "nM"}, {"measurement": "IC50", "setting": "[9]", "result": 1000, "unit": "nM"}, {"measurement": "IC50", "setting": "[10]", "result": 220, "unit": "nM"}]}
{"smiles": "Cc1cc(N(C)c2nc(Cl)nc3ccccc23)ccc1[Se]C#N", "values": [{"measurement": "IC50", "setting": "[1]", "result": 6.01, "unit": "nM"}]}
